Results from US20210290680A1, “METHODS AND COMPOSITIONS FOR MODULATING CELLULAR AGING” (Dorian Therapeutics, Inc., priority 2019, published 2021).

Assays:
CDKN1A = experiment: qPCR of senescence marker CDKN1A; type: cell-based, human; settings: for CDKN1A expression, fold change vs Control: day 15, n=4; for decrease of senescence marker CDKN1A (Ctrl vs shRNA): primary T cells, day 15
Text: A new set of shRNAs were cloned into the pSIH backbone, where the shRNA expression is driven by the H1 promoter. The vector was also engineered to co-express GFP and Puromycin resistance through a T2A sequence. The new shRNA sequences were: shUSP16 #1 5′-[…]-3′ (SEQ ID NO: 8) and shUSP16 #2 5′-[…]-3′ (SEQ ID NO: 9). Primary T cells were activated as described (Example 3), transduced with a lentivirus encoding either a shUSP16 #1, shUSP16 #2 or a scrambled shRNA (Control) and cells were selected with puromycin at day 6. Between 1 and 1.25×10^6 cells were plated post-puromycin selection with a purity higher than 90% and counted every 2-4 days by Trypan Blue exclusion using Vi-CELL XR cell counter (Beckman Coulter). qPCR was performed to verify downregulation of USP16 expression (FIG. 14A) and the expression of the senescent marker CDKN1A (FIG. 14B) at day 15. Proliferation was measured as fold increased compared to shControl at day 15 post-activation. The experiment was repeated using primary T cells obtained from buffy coats of 3 different healthy donors.
(§1) Primary T cells were activated as described (Example 3), transduced with a lentivirus encoding for either a CD19.CAR or a GD2.CAR co-expressing shUSP16 #1, shUSP16 #2 or a scrambled shRNA (Control). Fifteen days post-activation, T cells were collected and qPCR performed. TaqMan probes detecting CDKN1A, CDKN2A (FIGS. 26A and 26B) (fold change GD2.CAR (n=4): CDKN1A Control vs shUSP #1: 0.4360, p<0.0001, and Control vs shUSP16 #2: 3.036, p=0.004 respectively. Fold change CD19.CAR (n=4): CDKN2a, CDKN1A Control vs shUSP #1: 0.6906, p=0.0026; 0.7228, p=0.0297 and Control vs shUSP16 #2: 0.8385, p=0.2325; 0.7017, p=0.0021), TCF7, LEF1, and Axin-2 (FIGS. 27A and B) were analyzed in GD2.CAR and CD19.CAR-expressing cells, respectively. ACTB was used as internal control. (GD2.CAR (n=4) TCF7, LEF1 and Axin-2: Control vs shUSP #1: 1.914 p=0.0512; 1.795 p=0.0323; 3.269 p=0.15 and Control vs shUSP16 #2: 1.284 p=0.0494; 1.718 p=0.0586; 2.035p=0.235, respectively. Fold change CD19.CAR (n=4): TCF7, LEF1 and Axin-2: Control vs shUSP #1: 1.528, p=0.0277; 1.82, p=0.0449; 1.998, p=0.031 and Control vs shUSP16 #2: 1.18, p=0.2002; 1.579, p=0.0632; 1.261, p=0.2382). USP16 downregulation in CAR-T cells results in a decreased expression of senescence markers and an increase in the expression of genes associated with the activation/increased signaling of the WNT pathway, indicating its importance in delaying cellular senescence and increasing self-renewal.

CDKN2A = experiment: qPCR of senescence marker CDKN2A; type: cell-based, human; settings: CD19.CAR, day 15, n=4
Text: as §1, with “USP16 downregulation in CAR-T cells results in a decreased expression of senescence markers and an increase in the expression of genes associated with the activation/increased signaling of the WNT pathway, indicating its importance in delaying cellular senescence and increasing self-renewal.” left out

TCF7 = experiment: qPCR of WNT pathway regulator TCF7; type: cell-based, human; settings: for TCF7 expression, fold change vs Control: CD19.CAR; for TCF7 expression, fold change vs Control / TCF7 expression vs Control: day 15, n=4; for TCF7 expression vs Control: GD2.CAR; for TCF7 expression, fold increase over Control: primary T cells, day 15
Text: Primary T cells were activated as described (Example 3), transduced with a lentivirus encoding either a shUSP16 #1, shUSP16 #2 or a non-targeting shRNA (shCtrl) and cells were selected with puromycin at day 6. At day 15 cell were collected and analyzed by qPCR for the expression of LEF1 (FIG. 16A) and TCF7 (FIG. 16B), downstream regulators of the WNT pathway. At day 20, cells were stained for CD4-PE, CD8-BV510, CD62L-Allophycocyanin and CD45RA-APC-Cy7 (Biolegend). Stem cell memory T cells (Tscm) were identified as Sytox^− GFP^+CD45RA^+CD62L^+, central memory T cells (Tcm) as Sytox^−GFP^+CD45RA^−CD62L^+, effector memory T cells (Tem) as Sytox^−GFP^+CD45RA^−CD62L^−, and terminal effector T cell (Teff) as Sytox^−GFP^+CD45RA^+CD62L^− (FIG. 17A). Cells were gated on the CD8 population. The specific increase of Tscm was shown as phenotype ratio (FIG. 17B).
as §1

CHLA-55 cells = experiment: CAR-T in vitro cytotoxicity assay, GD2.CAR T cells; type: cell-based, human; settings: 1:5 E:T, 72 hours, n=3
Description: Primary T cells were activated as described (Example 3), transduced with a lentivirus encoding for either a CD19.CAR or a GD2.CAR co-expressing shUSP16 #1, shUSP16 #2 or a scrambled shRNA (Control). Cells were cultured in IL-2 and sorted between days 6-13 for EGFRt. At day 16 cytotoxicity assays were performed. Briefly, cells were counted and 100,000 T cells (adjusted for EGFR expression) were plated at 1:5 Effector:Target (E:T) ratio. At 72 hours, the mixture of tumor cells and T cells were collected, stained for CD3-PE, CD8-BV510, CD19- or GD2-APC, EGFR-AF488 and Sytox and counted by flow cytometry (MACSQuant, Miltenyi Biotec) (FIGS. 30A and 30B). Counting beads (CountBright Absolute Counting beads, Invitrogen) were added before acquisition and absolute number was calculated as following (number of cell events/number of bead events)×(assigned bead count of the lot (beads/50 ul)/volume of sample (ul))=concentration of sample as cells/ul). NALM cells were used as target cells for CD19.CAR T cells and CHLA-55 cells were used as target for GD2.CAR T cells. Three different primary T cell cultures were tested for CD19 and GD2 CAR.

NALM leukemia cell line = experiment: In vivo anti-tumor activity of CD19.CAR T cells (circulating Gaussia luciferase); settings: immunocompromised mice, one million CD19.CAR T cells via tail vein, n=4-6
Description: Primary T cells were activated and prepared, as in Example 26. NALM leukemia cell line was transduced with Gaussia Luciferase and one million cells were injected via tail vein at d−4. One million of CD19.CAR T cells were then infused via tail vein at d=0 and mice were weighted, and blood was collected every week (FIG. 38). Tumor growth was monitor by weekly assessment of circulating luciferase. Briefly, blood was collected and subsequently analyzed for luciferase expression using Nanolight Technologies Luciferase detection Kit. Luciferase expression (calculated as GLuc, RLU (Relative Luminescence Unit)) in the blood correlates with tumor engraftment. As NALM cells engraft primarily in the spleen, at the time of sacrifice, the spleens were collected and photographed (FIG. 39B), the size of the spleen directly correlates to the amount of tumor infiltrated in the organ.

Substance	CDKN1A expression, fold change vs Control (CDKN1A; CD19.CAR)	CDKN1A expression, fold change vs Control (CDKN1A; GD2.CAR)	decrease of senescence marker CDKN1A (Ctrl vs shRNA) (CDKN1A) [%]	CDKN2a expression, fold change vs Control (CDKN2A)	TCF7 expression, fold change vs Control (TCF7)	TCF7 expression vs Control (TCF7)	TCF7 expression, fold increase over Control (TCF7)	CHLA-55 residual cells (CHLA-55 cells)	T cell number (CHLA-55 cells)	NALM engraftment, luciferase expression in blood (GLuc) (NALM leukemia cell line) [RLU]
shUSP16 #1: shRNA targeting USP16, 5′-GACTGTAAGACTGACAATAAA-3′ (SEQ ID NO: 8), pSIH backbone or co-expressed in CAR plasmid	0.7228	0.4360	23	0.6906	1.528	1.914	2.804	159531	79566	38603
shUSP16 #2: shRNA targeting USP16, 5′-TATATCAGTTCACCCGTAAT-3′ (SEQ ID NO: 9), pSIH backbone or co-expressed in CAR plasmid	0.7017	3.036	37	0.8385	1.18	1.284	1.428	129186	194025	5169
